Laboratory results from a melting point compilation (Tetko et al.; mined from patent text by program, amines drawn as free bases though some values may be those of a salt).

| Compound | melting point [°C] |
| --- | --- |
| CN(C)CCNC(=O)Nc1ccc(-c2cnc(COCc3cc4ccccc4o3)o2)cc1 | 150 to 154 |
| CS(=O)c1nc2ccc(C(F)(F)F)cc2[nH]1 (centres undefined) | 135 |
| CCOC(C(=O)O)N1CCN2c3ccccc3Cc3ccccc3C2C1 (centres undefined) | 105 to 108 |
| CCOC(=O)C1=C(C)NC(COC(=O)c2ccccc2)=C(C(=O)OCC)C1c1ccccc1[N+](=O)[O-] (centres undefined) | 156 to 157 |
| COc1cc2c(cc1Nc1ncc(Cl)c(Nc3ccccc3OC)n1)CCN(C(=O)CN(C)C)CC2 | 76 to 99 |
| Cc1ccc([N+](=O)[O-])cc1Nc1ncc(-c2ccc(C#N)cc2)o1 | > 228 |
| CC(=O)NC(CC(=O)c1cc(Cl)ccc1N)C(=O)NC(CO)c1ccccc1 (centres undefined) | 212 to 215 |
| COc1cccc(CNC(=O)c2nc3scc(NC(=O)Cc4ccc(C(=O)O)cc4)c3c(=O)[nH]2)c1 | 218 to 219 |
| Cc1cccc(-c2[nH]c(C(C)C)nc2-c2cccc(-c3ccc(S(C)(=O)=O)cc3)c2)n1 | 104 to 106 |
| CCOC(=O)c1cccc(-c2nccc(OCCc3ccc(OC)c(OC)c3)n2)c1 | 101 to 102 |
| Cc1cc2c(cc1C)N(C)c1cscc1C(=O)N2 | 260 to 262 |
| COc1c(N2CC(F)[C@](C)(N)C2)c(F)cc2c(=O)c(C(=O)O)cn([C@@H]3C[C@@H]3F)c12 (some centres undefined) | 160 to 163 |
| COc1ccc2nc(COc3ccc(CC(C(N)=O)S(C)(=O)=O)cc3)n(C)c2c1 (centres undefined) | 233 to 236 |
| CCN(Cc1ccccc1)C(=O)Cn1c2cccc(OCc3ccccc3)c2c2c(COC)c(C(=O)OC(C)C)ncc21 | 142 to 144 |
| COc1ccc(C=C(C)c2cc(OC)sc2C)cc1 | 112 to 113 |
| CC(C)Cn1c(C(=O)O)c(-c2ccccc2F)c2cc(OCc3ccccc3)ccc2c1=O | 178 to 179 |
| Nc1nc(N2CCN(CCCC3(c4ccc(F)cc4)OCCO3)CC2)ccc1[N+](=O)[O-] | 117 to 118 |
| CC(=O)C1=C(C)NC2=C(C(=O)CCC2)C1c1cccc([N+](=O)[O-])c1 (centres undefined) | > 250 |
| CC(C)COc1cc(O)c2c(c1)OC(C)(C)CC2=O | 77 to 79 |
| CCOC(=O)c1cnc(N(C)C)nc1 | 65 |
| C[C@@H]1CN(CC=CC(=O)Nc2cc3c(Nc4ccc(F)c(Cl)c4)ncnc3cc2O[C@@H]2CCOC2)CC(=O)O1 | 230 |
| C#CCN1C(=O)C(=O)N(c2cc(Cl)ccc2C)C1=S | 162 to 164 |
| CCOC(=O)C1=C(CC)Nc2n[nH]cc2C1c1ccccc1OC (centres undefined) | 169 |
| CNC(=O)C1=CC(CF)(CF)Oc2ccccc21 | 138 to 139 |
| Cc1ccc(C(=O)OC2CCC3(C)C(=CCC4C3CCC3(C)C(=NO)CCC43)C2)cc1 (centres undefined) | 135 to 139 |

| Compound | melting point [°C] |
| --- | --- |
| CCCCCCCNC(=O)Nc1ccccc1C(=O)Nc1ccc(CCCCCCC)cc1 | 155 to 157 |
| COC(=O)C1(NC(=O)Cc2cc(C)ccc2C)CCN(OC)CC1 | 91 to 93 |
| CC(=O)Nc1nc(/C=C/C(=O)N2CCN(C(=O)c3cc(C(F)(F)F)cc(C(F)(F)F)c3)[C@H](Cc3ccc(C)c(C)c3)C2)cs1 | 145 to 149 |
| Cc1c(-c2ccc(C(F)(F)F)cc2)n(Cc2ccc(OCCN3CCCCC3)cc2)c2ccc(O)cc12 | 174 |
| COC(=O)c1ccc(OC(=O)Cl)cc1 | 52 to 53 |
| CCOc1cc(C=O)cc2c1OC(C)(C)C2 | 33 to 36 |
| CN1CC(c2ccc(Cl)cc2)C(=O)C(c2cccc(C(F)(F)F)c2)C1 (centres undefined) | 116 |
| COc1nc(C)c(C(C)O)cc1NC(=O)N1CCN(c2cc(C)cc(C)c2)CC1 (centres undefined) | 153 to 154 |
| C=C(Cc1ccccc1)C(=O)NN1CCSCC1 | 141 |
| C#CCN(C(C)=O)c1cccc(-c2ccc3nnc(C)n3n2)c1 | 195 to 198 |
| CC(C)(C)c1cc(-c2nn(Cc3ccc([N+](=O)[O-])cc3)c3ncccc23)cc(C(C)(C)C)c1O | 143 to 145 |
| CCN1CCN(C2c3c(C)c(N4CCN(c5ccc(OC)cc5)CC4)c(C)c(C)c3OC2(C)C)CC1 (centres undefined) | 98 to 100 |
| COc1ccc2c(c1)[C@H]1Cc3ccccc3[C@H]1N2 (relative stereo) | 101 |
| OCc1ccc(-c2ccccc2-c2nnn[nH]2)cc1 | 132 to 135 |
| COC(=O)[C@H](Cc1ccccc1)NC(=O)c1ccc([N+](=O)[O-])cc1 | 115 to 116 |
| CN(C)CCCc1cccc(OCCCNc2nc(N)nn2C)c1 | 64 to 65.5 |
| CCOC(=O)c1c(C)cc2c(c1C)C(=O)OCC2=O | 142 to 144 |
| CCOC(=O)Cc1c2cc(OC)ccc2n2c(Cc3ccccn3)nccc12 | 103 to 104 |
| COc1ccccc1S(=O)(=O)N(C)c1cccc2cc(C3=NCC(CCO)S3)[nH]c12 (centres undefined) | 154 to 155 |
| CNC(=S)Nc1ccccc1CC(=O)OC | 99 to 100 |
| C=C(C)C(=O)NC(C)C | 89 |
| CN(C)C1(c2ccccc2)CCC(=CC(=O)NCCc2ccccc2)CC1 (centres undefined) | 153 to 155 |
| CCN(CC)C(=O)n1cc(Cc2ccc(C(=O)NS(=O)(=O)c3ccccc3C)cc2OC)c2cc(C(=O)NCC(C)CC(F)(F)F)ccc21 (centres undefined) | 153 to 154 |
| Cc1cc(C(O)=S)cc(N)c1Cl | 225 |
| Cn1ccc(COc2nn3c(-c4ccccc4F)nnc3cc2C2CCC2)n1 | 184 to 186 |

| Compound | melting point [°C] |
| --- | --- |
| CSC1=C([N+](=O)[O-])CCN1 | 207 to 209 |
| O=c1[nH]nc(-c2ccccc2)c(-c2ccccc2)c1S(=O)(=O)c1ccccc1 | 254 to 256 |
| Cn1nnnc1-c1cnc2cc(F)c(F)cc2c1O | > 300 |
| COc1cc(Nc2cn(Cc3ccccc3)c(=O)c3ccccc23)cc(OC)c1OC | 162 to 164 |
| C=CCN(CC=C)c1nc(NC(=O)Cc2ccccc2)n2oc(=O)nc2n1 | 165 to 167 |
| CCCCN1CCC(O)(c2cccn2Cc2ccccc2F)CC1 | 132 to 135 |
| Nc1cnn(CCO)c1NCCO | 140 to 142 |
| O=C(NC12CC3CC(CC(C3)C1)C2)c1ncn(-c2ccccc2)c1Br | 229 to 232 |
| COc1ccc(-c2cccc(OCc3ccccc3)c2)cc1 | 78.5 to 81 |
| Cc1cc(-n2ccnc2)c2cccc(OCc3c(Cl)ccc(S(=O)(=O)N4CCC[C@H]4C(=O)NCCCN4CCOCC4)c3Cl)c2n1 | 96 |
| CC1CCC2(C)C(=CCC3C4CC(C)C(=O)C4(C)CCC32)C1 (centres undefined) | 109 to 110 |
| NC(=O)c1sc2nccc(N3CCN(C(c4ccccc4)c4ccccc4)CC3)c2c1N | 225 to 233 |
| Cc1c(-c2cnccn2)ssc1=S | 164 |
| CN(C)N=Cc1cn(C)nc1-c1ccc([N+](=O)[O-])o1 | 164 to 165 |
| COC(COc1ccc2oc(C(=O)O)c(C)c2c1)OC | 74 |
| NS(=O)(=O)c1cnc(-c2ccccc2)s1 | 209 to 210 |
| O=C1OC(c2ccccc2)(c2ccccc2)CC(O)=C1CCCc1ccccc1 | 61 to 63 |
| CC(=O)NC[C@H]1CN(c2cc(F)c(C3CCNCC3)c(F)c2)C(=O)O1 | 125 to 126 |
| Nc1nc(O)c2cc(C=Cc3ccc(C(=O)O)cc3)cnc2n1 | > 250 |
| CC(C)(Cc1ccccc1)Oc1ccc([N+](=O)[O-])cc1 | 78 to 79 |
| C=Cc1cc(C)nc2c(OCc3ccccc3)cccc12 | 114 |
| CCc1ccc2c(c1)C=Cc1cc(C)ccc1C2c1cn(-c2ccc(SCC(=O)O)nn2)c(=O)[nH]c1=O (centres undefined) | 225 to 230 |
| CC(C)C1=CC2=CCC3C(C)(C(=O)N(C)C4CCCCC4)CCCC3(C)C2CC1 (centres undefined) | 130 to 132 |
| c1ccc(COc2ccc3c(c2)OC[C@@H](c2ccccc2)[C@H]3c2ccc(OCCCCCCN3CCOCC3)cc2)cc1 (racemic) | 85.7 to 87.5 |
| CC(=O)c1cc([N+](=O)[O-])c2c(c1)C(C)(C)CCO2 | 117 to 119 |

| Compound | melting point [°C] |
| --- | --- |
| O=C(O)C(Sc1ccccc1)c1cc(Cl)cc(Cl)c1 (centres undefined) | 115 to 119 |
| Nc1ncc(-c2ccc(=O)[nH]n2)c(-c2ccccc2)n1 | > 280 |
| COC(=S)Cc1ccc(C(=O)CN2CCN(c3ccncc3)CC2)cc1 | 109 to 110 |
| CC(C)OC(=Cn1cnnn1)c1ccc(Cl)cc1Cl | 82 |
| CCC(=O)N[C@@H](CC)c1nc2c(C(F)(F)F)cccc2c(O)c1C(=O)Nc1nccs1 | > 275 |
| O=C(O)c1cc(S(=O)(=O)N2CC=CCC2)ccc1Cl | 180 to 182 |
| CCCCCCOc1ccc(C(=O)Nc2ccc(C(=O)O)cc2)cc1C12CC3CC(CC(C3)C1)C2 | 256 to 257 |
| O=C(O)CNC(=O)c1c(O)n(C2CCCCC2)c(=O)n(C2CCCC2)c1=O | 222 to 224 |
| N=C(N)N(CCCC(C=O)NC(=O)CNC(=O)CCc1ccccc1)C(=O)OCc1ccccc1 (centres undefined) | 69 to 74 |
| Nc1ccn(-c2ccc(Br)cc2)n1 | 122 to 123 |
| CC1(C)N=C(S)N=C(N)N1 | 186 to 188 |
| O=c1[nH]c2ncc(-c3ccccn3)nc2n1CC1CCCCC1 | 194 to 196 |
| O=c1c(-c2cccc(Cl)c2)coc2cc(O)c(O)cc12 | 308 |
| CS(=O)(=O)c1ccc(-c2nc(C(F)(F)F)nc(NN)c2-c2ccc(S(=O)(=O)NN)cc2)cc1 | 203 to 206 |
| CCn1ccnc1CNC(=O)c1[nH]c2ccc(Cl)cc2c1S(=O)(=O)c1ccccc1 | 204 to 206 |
| CCNC(=O)[C@@H]1CCCN1C(=O)[C@H](C)NC(=O)OCC | 126 to 128 |
| CCNc1ccc(-n2c(C(F)(F)F)nn(C)c2=S)c(Cl)c1 | 87 to 90 |
| CN(C)C(=O)c1c(-c2ccc(F)cc2)ccc2ccccc12 | 103 to 104 |
| Cc1cc2c(nc(C)n2CCc2ccccc2)c(N(Cc2ccccc2)Cc2ccccc2)n1 | 124 to 126 |
| Fc1ccc(-c2cc(C(S)(C(F)(F)F)C(F)(F)F)[nH]c2-c2ccc(F)cc2)cc1 | 114 to 115 |
| CS(=O)(=O)CC(O)(Cn1cncn1)C(F)(F)C(F)(F)C(F)(F)C(F)(F)F (centres undefined) | 106 to 109 |
| CCCCCCCCCCCCCCCCOCC(CN)COC (centres undefined) | 49 to 51 |
| COc1nc(C(F)(F)F)cc(=O)n1-c1cc(OC(C)=O)c(Cl)cc1F | 110 to 112 |
| CSc1nnc(-c2cccs2)n1C | 83 to 85 |
